Assay results published in US5250518A, “O-methyl derivatives of azithromycin A” (priority 1990, dated 1993).
In brackets after ≈: the same amount, converted by molar mass.

Experiments:
Assay in all cases: Antibacterial in vitro activity in comparison with azithromycin (Table 3)
[1] = test system: ATCC 8043; format: cell-based; details: Staphylococcus faecalis, ATCC8043; Brain hearth Bouillon, 24-48 hours, 37° C., inoculum 10^-5 -10^-6 cfu/mL
Excerpt: (§1) In Table 3 there are represented in vitro tests of 6-O-methyl- (Ii), 6,11-di-O-methyl- (Ij), 11-O-methyl- (Ik) and 6,11,4"-tri-O-methyl-azithromycin A (II) in comparison with azithromycin.

[2] = test system: Bacillus pumilus NCTC 8241; format: cell-based; details: NCTC8241, Brain hearth Bouillon, 24-48 hours, 37° C., inoculum 10^-5 -10^-6 cfu/mL
Excerpt: as §1

[3] = test system: Sarcina lutea ATCC 9341; format: cell-based; details: Micrococcus luteus, ATCC9341; Brain hearth Bouillon, 24-48 hours, 37° C., inoculum 10^-5 -10^-6 cfu/mL
Excerpt: as §1

[4] = test system: Staphylococcus epidermidis ATCC 12228; format: cell-based; details: ATCC12228, Brain hearth Bouillon, 24-48 hours, 37° C., inoculum 10^-5 -10^-6 cfu/mL
Excerpt: as §1

[5] = test system: ATCC 10240; format: cell-based; details: Brain hearth Bouillon, 24-48 hours, 37° C., inoculum 10^-5 -10^-6 cfu/mL
Excerpt: as §1

[6] = test system: Bacillus cereus NCTC 10320; format: cell-based; details: NCTC10320, Brain hearth Bouillon, 24-48 hours, 37° C., inoculum 10^-5 -10^-6 cfu/mL
Excerpt: as §1

[7] = test system: Escherichia coli ATCC 10536; format: cell-based; details: ATCC10536, Brain hearth Bouillon, 24-48 hours, 37° C., inoculum 10^-5 -10^-6 cfu/mL
Excerpt: as §1

[8] = test system: Pseudomonas aeruginosa NCTC 10490; format: cell-based; details: NCTC10490, Brain hearth Bouillon, 24-48 hours, 37° C., inoculum 10^-5 -10^-6 cfu/mL
Excerpt: as §1

[9] = test system: Corynebacterium xerosis NCTC 9755; format: cell-based; details: NCTC9755, Brain hearth Bouillon, 24-48 hours, 37° C., inoculum 10^-5 -10^-6 cfu/mL
Excerpt: as §1

[10] = test system: Bacillus subtilis NCTC 8241; format: cell-based; details: Bacillus subtilis, NCTC8241; Brain hearth Bouillon, 24-48 hours, 37° C., inoculum 10^-5 -10^-6 cfu/mL
Excerpt: as §1

[11] = test system: ATCC 6538P; format: cell-based, Staphilococcus aureus; details: Brain hearth Bouillon, 24-48 hours, 37° C., inoculum 10^-5 -10^-6 cfu/mL; read-out: MIC
Excerpt: as §1

SMILES	MIC [1] [µg/mL]	MIC [2] [µg/mL]	MIC [3] [µg/mL]	MIC [4] [µg/mL]	MIC [5] [µg/mL]	MIC [6] [µg/mL]	MIC [7] [µg/mL]	MIC [8] [µg/mL]	MIC [9] [µg/mL]	MIC [10] [µg/mL]	MIC [11] [µg/mL]
CC[C@H]1OC(=O)[C@H](C)[C@@H](O[C@H]2C[C@@](C)(OC)[C@@H](O)[C@H](C)O2)[C@H](C)[C@@H](O[C@@H]2O[C@H](C)C[C@H](N(C)C)[C@H]2O)[C@](C)(OC)C[C@@H](C)CN(C)[C@H](C)[C@@H](OC)[C@]1(C)O [Ij, 6,11-Di-O-Methyl-azithromycin A]	0.78 (≈ 1 µM)	0.78 (≈ 1 µM)	0.05 (≈ 0.0643 µM)	1.56 (≈ 2.01 µM)	0.78 (≈ 1 µM)	1.56 (≈ 2.01 µM)	6.25 (≈ 8.04 µM)	100 (≈ 129 µM)	12.5 (≈ 16.1 µM)	0.78 (≈ 1 µM)	1.56 (≈ 2.01 µM)
CC[C@H]1OC(=O)[C@H](C)[C@@H](O[C@H]2C[C@@](C)(OC)[C@@H](OC)[C@H](C)O2)[C@H](C)[C@@H](O[C@@H]2O[C@H](C)C[C@H](N(C)C)[C@H]2O)[C@](C)(OC)C[C@@H](C)CN(C)[C@H](C)[C@@H](OC)[C@]1(C)O [Il, 6,11,4"Tri-O-Methyl-azithromycin A]	0.78 (≈ 0.986 µM)	3.12 (≈ 3.95 µM)	0.05 (≈ 0.0632 µM)	3.12 (≈ 3.95 µM)	3.12 (≈ 3.95 µM)	3.12 (≈ 3.95 µM)	6.25 (≈ 7.9 µM)	200 (≈ 253 µM)	25 (≈ 31.6 µM)	3.12 (≈ 3.95 µM)	3.12 (≈ 3.95 µM)
